Measurements taken from patent US10517870B2, “Aryl substituted bicycle heteroaryl compounds” (Bristol-Myers Squibb Company, priority 2015, dated 2019).
Like-named read-outs stand apart in the source and are kept apart here.

Legend:
PAR4 = target: T1, PAR4 (Homo sapiens, UniProt Q96RI0); assay: PAR4 FLIPR assay (calcium mobilization, antagonist activity) in PAR4-expressing HEK293 cells; assay type: cell-based
T1 construct: expressed in transfected cells; host or cells: HEK293 PAR4 Clone 1.2A
T1 sequence (Q96RI0 18-385): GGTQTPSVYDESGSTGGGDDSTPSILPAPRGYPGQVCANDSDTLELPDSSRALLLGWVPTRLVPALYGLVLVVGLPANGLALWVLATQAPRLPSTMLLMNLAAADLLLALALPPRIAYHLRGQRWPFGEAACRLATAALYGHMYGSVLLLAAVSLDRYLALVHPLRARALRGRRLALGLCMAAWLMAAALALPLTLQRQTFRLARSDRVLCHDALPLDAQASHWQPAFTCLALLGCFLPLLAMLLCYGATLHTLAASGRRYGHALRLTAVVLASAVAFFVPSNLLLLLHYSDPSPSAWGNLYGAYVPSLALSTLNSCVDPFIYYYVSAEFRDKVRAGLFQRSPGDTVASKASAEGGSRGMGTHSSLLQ
Excerpt: The FLIPR assay is an exemplary in vitro assay for measuring the activity of the PAR4 antagonists of the present invention. In this assay, intracellular calcium mobilization is induced in PAR4 expressing cells by a PAR4 agonist and calcium mobilization is monitored.
HEK293 cells stably expressing PAR4 were generated by a standard method of transfection of human PAR4 (F2R23) cDNA expression vector and selected based on PAR4 protein expression or mRNA expression. […] These cells also express endogenous PAR1 and can elicit calcium signal upon stimulation with PAR1 agonist peptide. Therefore, the same cells were also used to determine selectivity against PAR1 and agonist activity for both receptors. Cells from HEK293 PAR4 Clone 1.2A (BMS Arctic ID 383940) were propagated and used for calcium mobilization studies.
FLIPR-based calcium mobilization assay in HEK293 cells was used to measure PAR4 antagonism, agonism, and selectivity against PAR1. The activity of the PAR4 antagonists of the present invention were tested in PAR4 expressing cells by monitoring H-Ala-Phe(4-F)-[…]NH2-induced intracellular calcium mobilization. Counter screens for agonist activity and PAR1 antagonist activity were also performed. Briefly, PAR1/PAR4-expressing HEK293 cells were grown in DMEM (Life Technology, Grand Island, N.Y.) containing 10% heat-inactivated FBS, 1% Penicillin-Streptomycin, 10 μg/mL blasticidin, and 100 μg/mL Zeocin at 37° C. with 5% CO2. Cells were plated overnight prior to the experiment in a black 384-well Purecoat Amine clear bottom plate (Becton Dickinson Biosciences, San Jose, Calif.) at 10,000 cells/well in 30 μL growth medium and incubated in a humidified chamber at 37° C. with 5% CO2 overnight. Prior to compound addition, the cell medium was replaced with 40 μL of IX calcium and magnesium-containing Hank's Balanced Saline Solution (HBSS) (with 20 mM HEPES) and 1:1000 diluted fluorescent calcium indicator (Codex Biosolutions, Gaithersburg, Md.). After a 30 minute incubation period at 37° C., and a further 30 minute incubation and equilibration period at room temperature, 20 μL test compound (diluted in 1×HBSS buffer) was added at various concentrations at 0.17% dimethyl sulfoxide (DMSO) final concentration. Changes in fluorescence intensity were measured using a Functional Drug Screening System (FDSS, Hamamatsu, Japan) to determine agonist activities. The cells were then incubated for 30 minutes at room temperature followed by addition of 20 μL of agonist peptide for antagonist activity measurement. […] Compound potency was derived from 11-point concentration-response curves.

C33A (HPV−) cells = assay: Cell proliferation/viability assay, C33A cells; assay type: cell-based; details: Homo sapiens, C-33-A, 96 h
Protocol: (§1) Caski (catalog number CRL-1550), SiHa (catalog number HTB-35), C33A (catalog number HTB-31), Saos-2 (ATCC HTB-85), and Hela (catalog number CCL-2) cells were obtained from the American Type Culture Collection (ATCC). The human cervical carcinoma cell lines Caski. SiHa, Hela and C33A, and the human osteosarcoma cell line Saos-2, and the human keratinocyte cell line HaCaT were cultured in Dulbecco's Modified Eagle Medium (DMEM, Invitrogen catalog number 11965-092) supplemented with 10% fetal bovine serum. The colorectal carcinoma cell line HCT-116 was cultured in Roswell Park Memorial Institute-1640 Medium (Invitrogen catalog number 11875-093) supplemented with 10% FBS. All cells were incubated at 37° C. in a humidified atmosphere with 5% CO2 in air. To establish the SCHPV-18 cell line, one million primary neonatal human foreskin keratinocytes (Invitrogen, catalog no. C-001-5C), cultured in KBM Gold-keratinocvte cell basal medium (Lonza, catalog no. 192060), were electroporated with 5 μg HPV-18 plasmid DNA (ATCC catalog no. 45152D) using the Amaxa Nucleofector II on setting T-007. Cells were co-transfected with 2 μg plasmid pZSGreen1-N1 (Clontech catalog no. 632448) encoding G418 resistance, and cells were selected for four days in 100 μg/ml G418, after which selection was removed. Cells were maintained in culture six months prior to compound testing. Integration of the HPV 18 genome was confirmed by Southern blot. Control cells transfected in parallel with pZSGreen1-N1 alone became senescent four days after selection and the culture could not be expanded. SCHPV-18 cells were maintained in E medium (Fehrmann F, Laimins L A. Human papillomavirus type 31 life cycle: methods for study using tissue culture models. Methods Mol Biol 2005; 292:317-330).
(§2) For proliferation assays, cells were plated in white polystyrene 96-well plates (Costar catalog number 3917) for CellTiter Glo viability assays or 96-well special optics plates (Costar cat #3614) for CellTiter Blue viability assays. Cells were plated in the appropriate growth medium without antibiotics. Two hours after cell plating, a 200× compound stock diluted in DMSO was added to a final concentration of 0.5%. Plates were incubated at 37° C., for 4 days and then cell viability was assessed using either CellTiter Blue (Promega catalog number G8081) or CellTiter Glo (Promega catalog number G7572) according to the manufacturer's instructions. For the CellTiter Blue viability assay, data was collected using the SpectraMax Gemini EM (Molecular Devices) with an excitation wavelength of 530 nm and emission wavelength of 590 nm. For the CellTiter Glo viability assay, data was collected using the Envision Mulitlabel Reader (Perkin Elmer catalog number 2104-0010). To calculate IC50 and EC50 values, percent inhibition curves were fit using a four-parameter logistic formula [y=A+[…]], where A and B denote minimal and maximal % inhibition, respectively, C is the IC50 value, D is the Hill slope, and x represents compound concentration.
(§3) Table C, below, sets out the results obtained employing various compounds of the invention tested for their effects on proliferation of such cells. Caski or SiHa cells, transformed by HPV 16, Hela cells, transformed by HPV 18, or HPV-negative control cell lines (Saos-2 or C33a) were treated with various compounds. […] Unlike the HPV-negative Saos-2 or C33a cell lines, the HPV-transformed cell lines rely on the presence of HPV for their continued proliferation. Therefore, a comparison of IC50 values from HPV-transformed cell lines with IC50 values obtained from HPV-negative cell lines can be used to test for compound selectivity.

HeLa (HPV18+) cells = assay: Cell proliferation/viability assay, HeLa cells; assay type: cell-based; details: Homo sapiens, 96 h, 4 days
Protocol: as §1, §2, §3

Caski (HPV16+) cells = assay: Cell proliferation/viability assay, Caski cells; assay type: cell-based; details: Homo sapiens, Ca-Ski, 96 h, 4 days
Protocol: as §1, §2, §3

SiHa (HPV16+) cells = assay: Cell proliferation/viability assay, SiHa cells; assay type: cell-based; details: Homo sapiens, 96 h, 4 days
Protocol: as §1, §2, §3

Saos-2 (HPV−) cells = assay: Cell proliferation/viability assay, Saos-2 cells; assay type: cell-based; details: Homo sapiens
Protocol: as §1, §2, §3

Caspase-3/-7 activity = assay: Apoptosis assay (Caspase-Glo 3/7) in HPV-transformed and HPV-negative cell lines; assay type: cell-based, human
Protocol: Apoptosis is a cellular process in which a cascade of events, controlled by proteolytic cleavage events, results in chromatin condensation, blebbing of the cell membrane, fragmentation of cellular DNA, and cell death. Caspases 3 and 7 are enzymes which control initiation of the later stages of apoptosis. Caspase-3/-7 activity can therefore be used as a measure of induction of apoptosis in response to compound treatment. For caspase-3/7 activity assays, cells were plated in 96-well plates (Costar catalog no. 3917) in DMEM with 10% FBS two hours before compound treatment. Cells were treated with compounds in a final concentration of 0.5% DMSO, then the Caspase-Glo 3/7 Assay (Promega catalog no. G8090) was performed according to manufacturer's instructions. […] Luminescence was measured using the EnVision Multilabel Reader (Perkin Elmer catalog no. 2104-0010) with aperture diameter 6 mm, height 4.2 mm, and measurement time of 0.1 second per well.
Example 15 was tested in an apoptosis assay using three HPV-transformed cell lines (Caski, SiHa, and SCHPV-18) and four HPV-negative cell lines (HCT-116, HaCat, C33a, and Saos-2). The cell lines were treated with a range of concentrations of the compound and induction of Caspase-3/-7 activity was measured relative to vehicle (DMSO)-treated controls.

[1] = read-out: C33A (HPV−) Proliferation IC50 (μM)
[2] = SAOS-2, 96 h, read-out: Saos-2 (HPV−) Proliferation IC50 (μM)

SMILES | IC50 (PAR4) [µM] | IC50 (C33A (HPV−) cells; [1]) [µM] | IC50 (HeLa (HPV18+) cells) [µM] | IC50 (Caski (HPV16+) cells) [µM] | IC50 (SiHa (HPV16+) cells) [µM] | IC50 (Saos-2 (HPV−) cells; [2]) [µM] | IC50 (C33A (HPV−) cells; C33A, HPV-negative, 4 days, read-out: C33A (HPV−) Proliferation IC50) [µM] | increase in Caspase-3/-7 activity (Caspase-3/-7 activity; HPV-positive cell lines (Caski, SiHa, SCHPV-18), relative to vehicle (DMSO)-treated controls) | induction of apoptosis (Caspase-3/-7 activity; HPV-positive versus HPV-negative cell lines (HCT-116, HaCat, C33a, Saos-2)) | IC50 (Saos-2 (HPV−) cells; 96 h, Saos-2, HPV-negative, 4 days, read-out: Saos-2 (HPV−) Proliferation IC50) [µM]
COc1ccc(-c2cc(C(F)(F)F)cc3nc(OC(F)F)cnc23)cc1 [Example 8, 2-(difluoromethoxy)-5-(4-methoxyphenyl)-7-(trifluoromethyl)quinoxaline] | 1.5 | > 99.5 | 2.3 | 2.5 | 4.3 | 58.3 | – | – | – | –
Cc1cc(-c2cccc(Cl)c2)c2ncc(OC(F)F)nc2c1 [Example 18, 5-(3-chlorophenyl)-2-(difluoromethoxy)-7-methylquinoxaline] | 1.4 | > 100 | 13.2 | 13.9 | 11.6 | > 100 | – | – | – | –
Cc1cc(-c2cccc(OC(F)(F)F)c2)c2ncc(OC(F)F)nc2c1 [Example 26, 2-(difluoromethoxy)-7-methyl-5-(3-(trifluoromethoxy)phenyl) quinoxaline] | 0.4 | > 100 | 4.6 | 6 | 3.8 | > 100 | – | – | – | –
Cc1cc(-c2ccc(OC(F)(F)F)cc2)c2ncc(OC(F)F)nc2c1 [Example 20, 2-(difluoromethoxy)-7-methyl-5-(4-(trifluoromethoxy)phenyl)quinoxaline] | 1.2 | 83.5 | 45.1 | 16.4 | 22.1 | > 100 | – | – | – | –
Cc1cc(-c2ccc(Cl)c(Cl)c2)c2ncc(OC(F)F)nc2c1 [Example 24, 5-(3,4-dichlorophenyl)-2-(difluoromethoxy)-7-methylquinoxaline] | 3.3 | 89.4 | 12.7 | 12.8 | 8.9 | > 100 | – | – | – | –
Cc1cc(-c2ccc(F)c(F)c2)c2ncc(OC(F)F)nc2c1 [Example 22, 2-(difluoromethoxy)-5-(3,4-difluorophenyl)-7-methylquinoxaline] | 1 | 94.4 | 16.9 | 15.9 | 12.6 | 70.6 | – | – | – | –
COc1ccc(-c2cc(C(F)(F)F)cc3nc(OC(F)F)cnc23)cc1Br [Example 15, 5-(3-bromo-4-methoxyphenyl)-2-(difluoromethoxy)-7-(trifluoromethyl)quinoxaline] | – | – | 18.2 | 16.5 | 12.9 | – | > 99.5 | greater than 10 fold | selectively induced apoptosis in HPV-positive cell lines | > 99.5
COc1cc(F)cc(-c2cc(C)cc3nc(OC(F)F)cnc23)c1 [Example 21, 2-(difluoromethoxy)-5-(3-fluoro-5-methoxyphenyl)-7-methylquinoxaline] | 2.2 | > 100 | 14.7 | 13.3 | 11.7 | > 100 | – | – | – | –
C#Cc1cc(-c2ccc(OC)cc2)c2ncc(OC(F)F)nc2c1 [Example 5, 2-(difluoromethoxy)-7-ethynyl-5-(4-methoxyphenyl)quinoxaline] | 0.25 | 42.3 | 3.3 | 3.4 | 4.5 | 53.1 | – | – | – | –
COc1ccc(-c2cc(C#N)cc3nc(OC(F)F)cnc23)cc1 [Example 1, 3-(difluoromethoxy)-8-(4-methoxyphenyl)quinoxaline-6-carbonitrile] | 1.9 | 6.9 | 1.5 | 2.3 | 1.7 | 7.7 | – | – | – | –
